This is an account of results in patent US20240197738A1, “COMPOUND 7AI IN TREATING EWING SARCOMA BY INHIBITING OTUD7A” (The University of North Carolina at Chapel Hill, priority 2021, published 2024).

Where a SMILES comes first, the peptide text is derived from it. The star is where a group is joined. Cbz = O=C(OCc1ccccc1)*

Common to all, as to assay type: cell-based, human
Assay [1] relates to EWS-FLI1. Kind of assay: Immunoblot of EWS-FLI1 protein abundance in cells. Conditions: for SPOP-mediated decrease of ectopically expressed EWS-FLI1: HEK293T cells, 10 μM MG132 or 1 μM MLN4924 overnight (FIG. 1G).
Assay [2] relates to EWS-FLI1 mRNA. Kind of assay: RT-PCR of EWS-FLI1 mRNA levels. As to the method:
Cells were isolated by dissociation with 0.05% Trypsin, followed by media quenching. The cells were spun down at 300×rcf for 5 minutes. The media was aspirated, the pellet was suspended with 1×PBS, and then the cells were spun down again. The PBS was aspirated. RNA extraction was performed with an RNA extraction kit (BioBasic BS584). The final elution step was done with 50 μL of RNAse-free water. The […] with the NanoDrop OneC (Thermo Fisher Scientific). Three biological replicates were performed for RNA extraction. Quartile analysis was done to exclude outliers and significance was determined by one-way ANOVA tests.

Assay [3] relates to SPOP. Nature of the assay: Immunoblot of SPOP levels. Conditions: D4476 treatment. As to the method: (§1) Cells were lysed in EBC buffer (50 mM Tris pH 7.5, 120 mM NaCl, 0.5% NP-40) or Triton X-100 buffer (50 mM Tris pH 7.5, 150 mM NaCl, 1% Triton X-100) supplemented with protease inhibitors (Complete Mini, Roche) and phosphatase inhibitors (phosphatase inhibitor cocktail set I and II, Calbiochem). The protein concentrations of whole cell lysates were measured by NanoDrop OneC using the Bio-Rad protein assay reagent as described previously. Equal amounts of whole cell lysates were resolved by SDS-PAGE and immunoblotted with indicated antibodies. For immunoprecipitations analysis, unless specified, 1000 μg lysates were incubated with the indicated antibody (1-2 μg) for 3-4 hr at 4° C. followed by 1 hr incubation with 10 μL Protein A magnetic beads (New England Biolabs). Or 1000 μg lysates containing tagged molecules were incubated with agarose beads coupled antibodies for the specific tag for 3-4 hr at 4° C. For endogenous IPs, incubation of cell lysates with antibodies was extended to overnight. The recovered immuno-complexes were washed five times with NETN buffer (20 mM Tris, pH 8.0, 100 mM NaCl, 1 mM EDTA and 0.5% NP-40) before being resolved by SDS-PAGE and immunoblotted with indicated antibodies.

In assay [4] the test system is EWS-FLI1 binding to SPOP. Nature of the assay: EWS-FLI1 binding to SPOP in cells. The settings on record: D4476 treatment. As for the experimental part:
as §1

Take `NC(=O)c1ccc(-c2nc(-c3ccc4c(c3)OCCO4)c(-c3ccccn3)[nH]2)cc1` [D4476]: the EWS-FLI1 protein levels result was “not observed” in assay [1] (A673^3A KI cells, D4476 for 16 hrs (FIG. 2P)) and “Increased EWS-FLI1 protein levels” in assay [1] (A673 parental cells, D4476 for 16 hrs (FIG. 2O)). The EWS-FLI1 protein abundance entry in assay [1] (EWS502 cells (CUL3 E358Q), D4476 treatment) is on record as “neither D4476 treatment, nor SPOP depletion increased EWS-FLI1 protein abundance”. The EWS-FLI1 protein accumulation entry in assay [1] (SK-N-MC, EWS894 and MHH-ES-1 cells, D4476 for 16 hrs (FIGS. 2B-2D)) was “resulted in the accumulation of EWS-FLI1 in multiple Ewing sarcoma cells”. Besides, in assay [1] (endogenous SPOP-depleted A673 cells, D4476 for 16 hrs (FIG. 2H)), the “effect on EWS-FLI1 levels in SPOP-depleted cells” value is reported as “attenuated”. Also, the “EWS-FLI1 mRNA levels” value in assay [2] (D4476 treatment) is on record as “without significantly affecting EWS-FLI1 mRNA levels”. The SPOP levels result in assay [3] is given as “unaffected”. The “EWS-FLI1 binding to SPOP” value in assay [4] is recorded as “reduced EWS-FLI1 binding to SPOP”.
Turning to `Cc1sc2c(c1C)C(c1ccc(Cl)cc1)=N[C@@H](CC(=O)OC(C)(C)C)c1nnc(C)n1-2` [JQ1], the EWS-FLI1 protein abundance result in assay [1] (MHH-ES-1 or A673 cells, JQ1 treatment) was “didn't change EWS-FLI1 protein abundance”.
Consider `CC(C)C[C@@H](C=O)NC(=O)[C@H](CC(C)C)NC(=O)[C@H](CC(C)C)NC(=O)OCc1ccccc1` [MG132] (Cbz-Leu-Leu-Leu-aldehyde), for which the “3A-EWS-FLI1 mutant protein response” value in assay [1] (3A-EWS-FLI1 (S464A/S465A/S466A), MG132 treatment) was “resistance to MG132 treatment”. Besides, the EWS-FLI1 protein abundance result in assay [1] (A673 and SK-N-MC cells, 10 μM MG132 for 4 hrs) was “significantly increased EWS-FLI1 protein abundance”. Besides, the “SPOP-mediated decrease of ectopically expressed EWS-FLI1” value in assay [1] was “blocked”. For the same compound, in assay [1] (tet-induced OTUD7A depletion, MG132 treatment), the “EWS-FLI1 protein levels following OTUD7A depletion” value was “largely preserved EWS-FLI1 protein levels”.
Take `NS(=O)(=O)OC[C@@H]1C[C@@H](n2ccc3c(N[C@H]4CCc5ccccc54)ncnc32)C[C@@H]1O` [MLN4924]: the EWS-FLI1 protein stabilization result in assay [1] (A673 cells, 1 μM MLN4924 overnight) was “largely stabilized EWS-FLI1”. The “SPOP-mediated decrease of ectopically expressed EWS-FLI1” value in assay [1] was “blocked”.
For the compound `Nc1cccc2c1CN(C1CCC(=O)NC1=O)C2=O` (centres unmarked) [lenalidomide], the EWS-FLI1 protein abundance entry in assay [1] (MHH-ES-1 cells, lenalidomide for 16 hrs (FIG. 2I)) is given as “increased EWS-FLI1 protein abundance”. For the same compound, the “EWS-FLI1 mRNA levels” value in assay [2] (lenalidomide treatment) is recorded as “without affecting EWS-FLI1 mRNA levels”.
